From US20180002692A1, “Sequence Specific and Organism Specific Antimicrobials and Related Materials and Methods” (priority 2015, published 2018)
“Also recorded” adds a separate entry of the source.

Tests used:
[1] = system: ampicillin-resistant E. coli; assay type: cell-based; conditions: for growth of drug-resistant E. coli in presence of ampicillin: antisense oligomer plus 300 μg/mL ampicillin
Method: pAKgfp1 plasmid was obtained from Addgene for TEM-1 β-lactamase resistance gene, bla (43). The plasmid was cloned into chemically competent Zymo DH5a E. coli (Expressys). Untransformed Zymo DH5a was used as a control strain for β-lactamase activity assays. Liquid cultures were grown in 2% LB, incubated at 37° C. and shaken at 225 rpm. Solid cultures were grown on 2% LB broth, 1.5% agar at 37° C. Ampicillin sodium salt (Sigma Aldrich) was used for selection at a concentration of 300 μg/mL for MIC and CFU analysis. Optical density measurements were taken using a Tecan GENios at 562 nm with a bandwidth of 35 nm. All bacterial freezer stocks were stored in 40% glycerol at −80° C.

β-lactamase = conditions: 5 μM α-TSS, 25 μM α-RBS, 25 μM α-YUNR; absence of ampicillin
Method: Fluorocillin™ Green 495/525 β-lactamase substrate soluble product (Life Technologies) was used at a concentration of 2.2 μM as a β-lactamase substrate and measured using a Tecan GENios microplate reader in black flat bottom 96 well plate at 485/535 nm with a bandwidth of 35 nm. Three biological replicates were grown from colonies for 12 hours liquid media in the presence of the respective antisense agents, diluted 1:10 into liquid media and Fluorocillin green, and monitored in the Tecan GENios for 5 hr at 37° C. measuring every 2 min. The slope of fluorescence measured was used as a measure of β-lactamase activity.
Using quantitative real-time polymerase chain reaction (qPCR), expression levels of the bla gene in presence of the three antisense agents were measured. Studies were carried out with 5 μM α-TSS, 25 μM α-RBS, and 25 μM α-YUNR in the absence of ampicillin.

bla mRNA = bla mRNA expression by qPCR; assay type: cell-based, E. coli; conditions: 5 μM α-TSS, 25 μM α-RBS, 25 μM α-YUNR; absence of ampicillin
Method: Three biological replicates were used for bla expression analysis. Cultures were pretreated overnight in respective PNA and liquid media in the absence of ampicillin and collected for RNA at 16 hr.
50 μL of the respective culture was added to 100 μL of Bacteria RNAprotect (Qiagen) and incubated at room temperature for 5 min. The cells were then pelleted via centrifugation for 3 min at 10,000 rpm, the supernatant removed, and samples were flash frozen in an ethanol dry ice bath and stored at −80° C. Precautions were taken to protect RNA from RNases using RNaseZap (Life Technologies). RNA was extracted from frozen cell pellets using GeneJET RNA purification kit (Thermo Scientific) and 350-600 ng was treated with Turbo DNA-free (Ambion). 50 ng cDNA was synthesized using Maxima Universal First Stand cDNA synthesis kit (Thermo Scientific). 1.5 ng of cDNA was used for qPCR with Maxima SYBR Green qPCR master mix with ROX normalization (Thermo Scientific) using Illumina Eco qPCR system. Transcript levels were analyzed using the ΔCq method with respect to moderately expressed housekeeping gene cysG (43). Transcript levels were further analyzed for the mutant populations using the ΔΔCq method with respect to the no treatment populations.

[2] = system: MDR Salmonella typhimurium; assay: Growth of clinical strain MDR S. typhimurium; assay type: cell-based; conditions: 10 μM
Method: (§1) MG1655 E. coli cultures were started from individual colonies from 2% LB and 1.5% agar into M9 media. They were diluted 1:10,000 from overnight culture into fresh M9 with respective treatment and grown at 37° C. with 225 rpm shaking. Clinical strains were started from individual colonies grown on cation adjusted Mueller Hinton Broth with 1.5% agar into liquid CAMHB. These were diluted 1:10,000 into CAMHB medium with respective treatment and grown at 37° C. with 225 rpm shaking. Optical density measurements were taking using a Tecan GENios at 562 nm with a bandwidth of 35 nm. Lag time was calculated using Growth Rates Made Easy (Hall et al. Mol. Biol. Evol. 31(1):232-238).
(§2) MDR E. coli was inhibited by four of the six oligomers tested (α-folC, α-ffh, α-lexA, and α-rpsD), extended-spectrum beta-lactamase (ESBL) K. pneumoniae was inhibited by two of the antisense oligomers (α-fnrS and α-rpsD), and New Delhi metallo-β-lactamase (NDM-1) K. pneumoniae was inhibited by one of the oligomers tested (α-rpsD) (FIGS. 15-16).

MDR E. coli = assay: Growth of clinical strain MDR E. coli; assay type: cell-based; conditions: 10 μM
Method: as §1, §2

CRE E. coli = assay: Growth of clinical strain CRE E. coli; assay type: cell-based, Escherichia coli; conditions: 10 μM
Method: as §1, §2

MG1655 E. coli [3] = assay: Growth (optical density, lag time) of MG1655; assay type: cell-based; conditions: 10 μM antisense inhibitor; for growth of MG1655 E. coli cultures: 24 h
Method: as §1, with “31(1):232-238). […]” for “31(1):232-238).”

[4] = system: ampicillin-resistant E. coli; assay type: cell-based; conditions: no α-TSS (no treatment)
Method: Three biological replicates were selected from colonies and pretreated for 16 hr with respective α-TSS concentration in liquid media. After pretreatment, the cultures were diluted 1:100,000 into liquid media with respective concentration of ampicillin and α-TSS and allowed to grow with shaking at 37° C. for 24 hr. The final OD at 562 nm at 24 hr was used for data analysis.
Data fitting analysis was performed in Origin Pro 6.1. Data was fit to a sigmoidal/decay Boltzman function.
The degree of re-sensitization exerted by α-TSS in presence of varying concentrations of ampicillin above and below the MIC determined for α-TSS was then evaluated.

ESBL K. pneumoniae = assay: Growth of clinical strain ESBL K. pneumoniae; assay type: cell-based, Klebsiella pneumoniae; conditions: 10 μM
Method: as §1, §2

MG1655 E. coli [5] = assay: Colony forming unit analysis of MG1655; assay type: cell-based; conditions: 10 μM, six and eight hours
From the text: The effect of α-lexA, α-fnrS, and α-rpsD on cell viability using a colony forming unit analysis was then determine.

KFFKFFKFFK-O-gaataagggcga (antisense GAATAAGGGCGA; PNA, (KFF)3K peptide via O-linker, chemistry not fully specified) [α-YUNR]
growth of drug-resistant E. coli in presence of ampicillin [1]: no impact on cell growth
β-lactamase activity (β-lactamase): no impact on protein activity

KFFKFFKFFK-O-cctttttcaata (antisense CCTTTTTCAATA; PNA, (KFF)3K peptide via O-linker, chemistry not fully specified) [α-RBS]
re-sensitization of drug resistant E. coli to ampicillin [1]: re-sensitized drug resistant E. coli to ampicillin; also recorded: re-sensitization of drug resistant E. coli to ampicillin; also recorded: re-sensitize
growth in absence of ampicillin (toxicity of antisense agent) ([1]; absence of ampicillin): non-toxic effect; also recorded: No inhibition
growth of drug-resistant E. coli in presence of ampicillin [1]: hindered cell growth; also recorded: impact growth; also recorded: significant antibiotic effect
minimum inhibitory concentration (MIC) ([1]; in presence of 300 μg/mL ampicillin, after overnight pretreatment with antisense agent): 25 µM
bla mRNA expression (bla mRNA): did not affect bla transcript levels; also recorded: did not significantly reduce bla expression

KFFKFFKFFK -O-tcaaacattgtc (antisense TCAAACATTGTC; all peptide nucleic acid (PNA); (KFF)3K cell-penetrating peptide joined to the N-terminus through an O-linker) [α-ffh, 12-mer antisense PNA centered on start codon of ffh, O-linker to (KFF)3K]
growth inhibition of MDR S. typhimurium [2]: inhibited
growth inhibition of MDR E. coli (MDR E. coli): inhibited
growth inhibition of CRE E. coli (CRE E. coli): inhibited

KFFKFFKFFK -O-taatcatggtat (antisense TAATCATGGTAT; all peptide nucleic acid (PNA); (KFF)3K cell-penetrating peptide joined to the N-terminus through an O-linker) [α-folC, 12-mer antisense PNA centered on start codon of folC, O-linker to (KFF)3K]
growth inhibition of MDR S. typhimurium [2]: inhibited
growth inhibition of MDR E. coli (MDR E. coli): inhibited
growth inhibition of CRE E. coli (CRE E. coli): inhibited

KFFKFFKFFK-O-ttcgacatcaac (antisense TTCGACATCAAC; PNA, (KFF)3K peptide via O-linker, chemistry not fully specified) [α-gyrB, 12-mer antisense PNA centered on start codon of gyrB, O-linker to (KFF)3K]
growth inhibition of MDR S. typhimurium [2]: inhibited
lag time (MG1655 E. coli [3]): significantly increased lag time
growth inhibition of CRE E. coli (CRE E. coli): inhibited

CC1(C)S[C@@H]2[C@H](NC(=O)[C@H](N)c3ccccc3)C(=O)N2[C@H]1C(=O)O [ampicillin, Ampicillin, reference compound]
slope of the transition from resistant to sensitive (Boltzman fit) [4]: −0.0051 ODmLμg^−1
ampicillin concentration up to which growth is without inhibition ([4]; 24 hr): 300 µg/mL
ampicillin concentration where no growth was observed ([4]; 24 hr): 700 µg/mL

KFFKFFKFFK-O-cacctgcaagag (antisense CACCTGCAAGAG; all peptide nucleic acid (PNA); (KFF)3K cell-penetrating peptide joined to the N-terminus through an O-linker) [α-fnrS]
growth inhibition of MDR S. typhimurium [2]: inhibited
lag time (MG1655 E. coli [3]): significantly increased lag time
growth of MG1655 E. coli cultures (MG1655 E. coli [3]): completely inhibited; also recorded: completely prevented cell growth; also recorded: Complete inhibition
growth inhibition of CRE E. coli (CRE E. coli): inhibited
growth inhibition of ESBL K. pneumoniae (ESBL K. pneumoniae): inhibited

KFFKFFKFFK -O-gctttcattccg (antisense GCTTTCATTCCG; all peptide nucleic acid (PNA); (KFF)3K cell-penetrating peptide joined to the N-terminus through an O-linker) [α-lexA, 12-mer antisense PNA centered on start codon of lexA, O-linker to (KFF)3K]
growth inhibition of MDR S. typhimurium [2]: inhibited
growth inhibition of MDR E. coli (MDR E. coli): inhibited
lag time (MG1655 E. coli [3]): significantly increased lag time
growth of MG1655 E. coli cultures (MG1655 E. coli [3]): completely inhibited; also recorded: completely prevented cell growth; also recorded: Complete inhibition
viable cells at six and eight hours (MG1655 E. coli [5]): prevented significant increase in viable cells; also recorded: prevents significant increases in viable MG1655 E. coli cells
growth inhibition of CRE E. coli (CRE E. coli): inhibited
